Laboratory results published in PMC5390903, “Influence of drug transporters and stereoselectivity on the brain penetration of pioglitazone as a potential medicine against Alzheimer's disease” (Scientific Reports, 2015).

Columns and labels:
[1] = system: P-gp; design: method as in PMID 10820137; settings: 25 mg/kg; mice; cited from earlier work
[2] = in vivo; settings: 30 mg/kg
Procedure: Our established UPLC-MS/MS method was used to quantify pioglitazone concentrations in plasma and brain samples harvested at different time points (1, 2, 4, 6, and 8 hours) after mice were given either racemic pioglitazone or (+)-pioglitazone.
Error bar represents one SD.
A total of forty mice were split into two treatment groups (n = 20), with one group receiving a single dose of the racemic pioglitazone (30 mg/kg, p.o.) and another group receiving the purified (+)-pioglitazone (30 mg/kg, p.o.). Both compounds were dissolved in Milli-Q water using 1% DMSO as co-solvent. Following oral administration of the test compounds, mice from both treatment groups were split again into five subgroups (n = 4), and mice belonging to different subgroups were sacrificed at different time points (1 hour, 2 hours, 4 hours, 6 hours, and 8 hours after oral dosing). All mice were sacrificed by CO2 euthanasia and blood samples were taken via cardiac puncture. Blood samples were then centrifuged at 4000 g (10 minutes) to collect the plasma. Whole brains were collected following transcardial perfusion with saline to remove blood from organs. […] Pioglitazone concentrations versus time graphs were constructed for both brain and plasma samples, and area under curve (AUC) for both (+)-pioglitazone and racemic pioglitazone were then used to assess each tissue's exposure to pioglitazone. AUC was calculated from time 0 hour to infinity (AUC0–∞) for both types of samples using the trapezoidal rule. Comparisons of pioglitazone concentrations in different sample matrices between the two treatment groups were performed using two-tailed independent t-test with Welch's correction, and statistical significance was defined as P < 0.05.

[3] = system: CHO-APP695 cells; experiment: Extracellular amyloid-β42 lowering in CHO-APP695 (sandwich ELISA); type: cell-based, Chinese hamster; settings: 48 hours; for effect on increase in extracellular amyloid-β42: 10 μM, versus non-treated CHO-APP695
Procedure: Figure 4 Extracellular amyloid-β42 levels in culture media samples harvested from both CHO-WT and treated or non-treated CHO-APP695 following 48 hours of post-seeding incubation.
CHO (Chinese hamster ovary) cells stably transfected with mouse APP 695 (CHO-APP695) were used as the AD in vitro model in this experiment. CHO-APP695 and the wild type (CHO-WT) were kindly provided by G. S. Dawe (National University of Singapore, Singapore). Both cell lines were incubated at 37°C in the presence of 5% CO2 for all cell culture work. Cell lines were maintained in DMEM culture medium (Sigma D1152) containing 10% FBS and supplemented with 100 units/mL of penicillin and 100 μg/mL of streptomycin.
When cells were used for experiments, both CHO-APP695 and CHO-WT were standardised at third passage and harvested for seeding when the cells were at log-phase growth. Cells were seeded (n = 7) on 24-well cell culture plates at 1 × 10^5 cells/well in 0.5 mL of culture medium. To evaluate amyloid-lowering effects of (+)-pioglitazone and racemic pioglitazone on extracellular amyloid-β42 levels, additional groups (n = 7) of CHO-APP695 treated with (+)-pioglitazone, (+)-pioglitazone + T007, racemic pioglitazone, and racemic pioglitazone + T007 were also seeded. […] Upon completion of seeding after 24 hours, the culture medium in each well was replaced with 0.5 mL of fresh medium. Seeded cells were incubated further for 48 hours before the culture medium was individually harvested. Harvested samples were briefly centrifuged (800 g) for 5 minutes at 4°C before supernatants were transferred into clean 1.8-mL cryogenic vials and snap frozen in liquid nitrogen. All harvested samples were stored at −80°C until analysis.
Amyloid-β42 levels in culture media were harvested 48 hours after seeding incubation and were quantitatively measured using colorimetric sandwich ELISA kits according to the protocols provided by the manufacturer (#SIG-38954 and #SIG-38956 from Covance, Princeton, NJ). […] All absorbance readings were measured using a Tecan Infinite M200 microplate reader (Tecan, Switzerland).

[4] = system: BCRP; design: method as in PMID 22828996; settings: 5 mg/kg; mice; cited from earlier work
[5] = In vivo investigation of P-gp and BCRP contributions to limited brain penetration of pioglitazone (brain-to-plasma ratio after transporter inhibitor pre-treatment); settings: C57BL/6, mouse, in vivo, 30 mg/kg
Procedure: (§1) All animals were pre-treated with the respective drug transporter inhibitor(s) 30 minutes before administration of pioglitazone. Thirty minutes after treatment with pioglitazone, all animals were sacrificed and plasma and brain samples were collected. […] The brain-to-plasma ratios of pioglitazone concentrations were used to assess penetration of brain tissue.
(§2) Figure 1 All animals were pre-treated with either the vehicle or the respective drug-transporter inhibitor (n = 6 for each treatment group) 30 minutes prior to drug treatment. Plasma and brain samples were then collected from the animals 30 minutes after pioglitazone treatment. (A) Pioglitazone levels in plasma samples harvested from mice given i.p. pioglitazone with or without pre-treatment of LY335979 (P-gp blocker) and/or Ko143 (BCRP blocker). (B) Brain-to-plasma ratios of pioglitazone concentrations calculated for each mouse given i.p. pioglitazone with or without pre-treatment of LY335979 and/or Ko143.
(§3) A total of 24 mice were divided into four treatment groups (n = 6), where three groups received pre-treatment of efflux pump inhibitors (P-gp inhibitor LY335979, BCRP inhibitor Ko143, and a combination of LY335979 + Ko143) and one group received vehicle pre-treatment as a control. All test compounds (pioglitazone, LY335979, and Ko143) were dissolved in Milli-Q water using 1% DMSO as co-solvent. Pre-treatments of LY335979 (25 mg/kg), Ko143 (5 mg/kg) or a combination of both were given in a single intra-peritoneal (i.p.) injection 30 minutes before pioglitazone administration (i.p. injection, 30 mg/kg). […] Following another 30 minutes after pioglitazone administration, all mice were sacrificed by CO2 euthanasia and their blood samples were collected via cardiac puncture into Eppendorf tubes supplemented with heparin. Transcardial perfusion with saline was then performed on the sacrificed mice to remove traces of blood from organs before the whole brain tissues were harvested. All biological samples were kept on ice immediately after collection. […]

[6] = system: P-gp and BCRP drug efflux transporters at the blood-brain-barrier; experiment: as above
Procedure: as §1, §2, §3

[7] = design: method as in PMID 21819568; settings: monkeys; cited from earlier work
[8] = rats, dogs, and monkeys; cited from earlier work

Compound: LY335979
- inhibition of P-gp [1]: 50%

Compound: CCc1ccc(CCOc2ccc(C[C@H]3SC(=O)NC3=O)cc2)nc1 (single isomer, unassigned) [(+)-pioglitazone]
- brain AUC0–∞ / brain exposure higher than after racemic pioglitazone ([2]; mouse): 76%
- brain AUC0–∞ of pioglitazone ([2]; mouse, po): 40 µg·h/mL
- brain Cmax of pioglitazone ([2]; mouse, po): 5070 ± 380 ng/mL
- peak time (Tmax) of plasma pioglitazone ([2]; mouse, po): 1 h
- plasma AUC0–∞ of pioglitazone ([2]; mouse, po): 274 µg·h/mL
- plasma concentration maximum (Cmax) of pioglitazone ([2]; mouse, po): 39920 ± 6200 ng/mL
- treatment effect on extracellular amyloid-β42 on co-administration of PPARγ selective blocker (T007) ([3]; 10 μM each): nullified
- effect on increase in extracellular amyloid-β42 [3]: reduced significantly

Compound: COc1ccc2c3c([nH]c2c1)[C@H](CC(C)C)N1C(=O)[C@H](CCC(=O)OC(C)(C)C)NC(=O)[C@@H]1C3 [Ko143]
- inhibition of BCRP [4]: 50%

Compound: CCc1ccc(CCOc2ccc(CC3SC(=O)NC3=O)cc2)nc1 (stereo not drawn) [pioglitazone, Pioglitazone]
- Kp at 30 min [5]: 0.107 ± 0.0125
- transporter substrate status ([6]; mouse, in vivo): substrate of P-gp
- pioglitazone brain-to-plasma concentration ratio ([6]; vehicle pre-treatment (control), pioglitazone 30 mg/kg i.p., 30 minutes after pioglitazone, n = 6): 10.65%
- AUC(0-inf) ([2]; C57BL/6, mouse, po): 262 µg·h/mL
- Cmax ([2]; C57BL/6, mouse, po): 53500 ± 8070 ng/mL
- Tmax ([2]; C57BL/6, mouse, po): 1 h
- brain AUC0–∞ of pioglitazone ([2]; C57BL/6, mouse, po): 22.7 µg·h/mL
- brain Cmax of pioglitazone ([2]; C57BL/6, mouse, po): 4880 ± 340 ng/mL
- effect on increase in extracellular amyloid-β42 [3]: reduced significantly
- cerebral spinal fluid (CSF) concentration as % of plasma concentrations [7]: less than 3%
- share of serum pioglitazone found in the CSF [8]: approximately 18%
